Results taken from the supplement of paper PMC10307832.

Columns and labels:
Assay in all cases: relative viability (nuclei count vs DMSO), 5 days (fraction); higher = more cells survive
Selisistat + Vorinostat = compound: C1CC(C2=C(C1)C3=C(N2)C=CC(=C3)Cl)C(=O)N [Selisistat] + O=C(CCCCCCC(=O)Nc1ccccc1)NO [Vorinostat] (partner 1 µM)
Summary of the method: (§1)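 Lung cancer cell lines in 1536-well plates got either a single drug or a fixed anchor-drug dose together with five library-drug doses (not always all listed) in √10 steps, by pin tool, on the day after seeding. Nuclei were counted after 5 days, and relative viability is the treated-to-vehicle ratio of nuclei counts. Values are medians of duplicate plates.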

Serdemetan + Dasatinib = compound: c1ccc2c(CCNc3ccc(Nc4ccncc4)cc3)c[nH]c2c1 [Serdemetan] + Cc1nc(Nc2ncc(C(=O)Nc3c(C)cccc3Cl)s2)cc(N2CCN(CCO)CC2)n1 [Dasatinib] (partner 0.075 µM)
Summary of the method: as §1

Serdemetan + Decitabine = compound: c1ccc2c(CCNc3ccc(Nc4ccncc4)cc3)c[nH]c2c1 [Serdemetan] + Nc1ncn([C@H]2C[C@H](O)[C@@H](CO)O2)c(=O)n1 [Decitabine] (partner 2 µM)
Summary of the method: as §1

Serdemetan + Vorinostat = compound: c1ccc2c(CCNc3ccc(Nc4ccncc4)cc3)c[nH]c2c1 [Serdemetan] + O=C(CCCCCCC(=O)Nc1ccccc1)NO [Vorinostat] (partner 1 µM)
Summary of the method: as §1

Cell Line	relative viability (Selisistat + Vorinostat; first compound 0.4 µM)	relative viability (Selisistat + Vorinostat; first compound 1.265 µM)	relative viability (Selisistat + Vorinostat; first compound 4 µM)	relative viability (Selisistat + Vorinostat; first compound 12.65 µM)	relative viability (Selisistat + Vorinostat; first compound 40 µM)	relative viability (Serdemetan + Dasatinib; first compound 0.04 µM)	relative viability (Serdemetan + Dasatinib; first compound 0.1265 µM)	relative viability (Serdemetan + Dasatinib; first compound 0.4 µM)	relative viability (Serdemetan + Dasatinib; first compound 1.265 µM)	relative viability (Serdemetan + Dasatinib; first compound 4 µM)	relative viability (Serdemetan + Decitabine; first compound 0.04 µM)	relative viability (Serdemetan + Decitabine; first compound 0.1265 µM)	relative viability (Serdemetan + Decitabine; first compound 0.4 µM)	relative viability (Serdemetan + Decitabine; first compound 1.265 µM)	relative viability (Serdemetan + Decitabine; first compound 4 µM)	relative viability (Serdemetan + Vorinostat; first compound 0.04 µM)	relative viability (Serdemetan + Vorinostat; first compound 0.1265 µM)	relative viability (Serdemetan + Vorinostat; first compound 0.4 µM)	relative viability (Serdemetan + Vorinostat; first compound 1.265 µM)	relative viability (Serdemetan + Vorinostat; first compound 4 µM)
NCI-H2342	0.749	0.646	0.626	0.899	0.897	0.309	0.302	0.291	0.28	0.301	0.753	0.776	0.643	0.531	0.475	0.705	0.731	1.07	0.908	0.478
SK-MES-1	1.13	1.15	1.01	1.1	1.18	0.337	0.378	0.327	0.379	0.267	0.327	0.368	0.397	0.33	0.281	0.962	1.08	0.889	0.962	0.71
HCC-366	0.464	0.434	0.57	0.441	0.384	0.637	0.472	0.542	0.0442	0.155	0.209	0.154	0.0922	0.0502	0.0773	0.351	0.166	0.191	0.047	0.0752
201T	1.07	0.98	0.85	1	0.995	0.568	0.508	0.546	0.449	0.464	0.863	0.801	0.783	0.489	0.593	0.974	0.996	0.883	0.879	0.715
HCC-827	0.851	0.829	0.862	0.862	0.837	0.372	0.231	–	0.229	0.138	0.371	0.243	–	0.263	0.305	0.827	0.466	–	0.597	0.449
NCI-H647	0.567	0.604	0.777	0.639	0.766	0.217	0.153	0.156	0.184	0.167	0.276	0.368	0.403	0.28	0.235	0.517	0.693	0.645	0.516	0.483
NCI-H2023	0.662	0.786	0.784	0.674	0.853	0.521	0.674	0.532	0.43	0.233	0.206	0.21	0.225	0.135	0.138	0.48	0.708	0.53	0.343	0.258
NCI-H520	0.722	0.705	0.814	0.592	0.794	0.244	0.182	0.223	–	0.198	0.44	0.481	0.57	0.4	0.335	0.785	0.688	0.683	0.438	0.548
RERF-LC-KJ	0.665	0.759	0.731	0.763	0.708	0.837	0.788	0.667	0.657	0.69	0.785	0.636	0.722	0.489	0.605	0.687	0.611	0.609	0.71	0.654
A-427	0.905	0.934	–	0.881	0.875	0.666	0.653	0.655	0.64	0.603	0.555	0.56	0.606	0.513	0.45	0.854	0.849	0.867	0.779	0.709
NCI-H441	0.851	0.723	0.805	0.666	1	0.69	0.649	0.516	0.585	0.435	0.256	0.22	0.249	0.219	0.172	0.795	0.71	0.765	0.479	0.436
NCI-H1792	–	–	–	–	–	0.746	0.773	0.747	0.533	0.493	0.429	0.459	0.417	0.327	0.176	–	–	–	–	–
SK-LU-1	0.747	0.792	1.02	0.821	0.927	0.212	0.183	0.183	–	0.179	0.581	0.58	0.691	0.393	0.593	0.746	0.821	0.746	0.598	0.451
PC-3 [JPC-3]	0.899	0.979	–	0.748	0.691	0.973	0.95	1.01	0.924	0.941	0.901	0.844	0.854	0.847	0.742	0.877	0.807	0.671	0.626	0.835
EMC-BAC-2	0.487	0.515	0.0984	0.12	0.12	0.304	0.358	0.344	0.268	0.293	0.882	0.912	0.972	0.879	0.823	0.463	0.471	0.495	0.379	0.399
LK-2	0.396	0.308	0.376	0.339	0.365	0.315	0.269	0.334	0.233	0.379	0.37	0.29	0.274	0.223	0.283	0.394	0.371	0.372	0.221	0.461
NCI-H2126	0.865	0.792	0.691	0.861	0.845	0.643	0.665	0.517	0.467	0.557	0.623	0.583	0.612	0.451	0.519	0.806	0.913	0.628	0.669	0.659
